Measured values published in patent US10369123B2, “Perk activator for the treatment of neurodegenerative diseases” (DEUTSCHES ZENTRUM FÜR NEURODEGENERATIVE ERKRANKUNGEN E.V. …, priority 2014, dated 2019).

Columns and labels:
tau = assay: Western blot of tau phosphorylation, 4R-tau overexpression model; assay type: cell-based, human; conditions: 4R-tau overexpressing lentivirus 8 days + PERK activator
Method: Nunc™ Nunclon™ Delta 6-well (for protein and mRNA) or 48-well (for cell assays) plates (Thermo Fisher Scientific, Waltham, Mass., USA) were coated with 100 μg/ml poly-L-lysine (Sigma-Aldrich, St. Louis, Mo., USA) and 5 μg/ml fibronectin (Sigma-Aldrich). LUHMES (Lund Human Mesencephalic) cells, derived from human embryonic ventral mesencephalic cells by conditional immortalization (Tet-off v-myc over-expression) were seeded out in a concentration of 130,000 cells/cm^2 to achieve a confluence of 50%. They were then differentiated for 8 days in a medium of DMEM/F12 (Sigma-Aldrich), 1 μg/ml tetracycline, […] and 490 μg/ml dbcAMP into post-mitotic neurons with a dopaminergic phenotype (Lotharius et al. 2005).
For all experiments with annonacin, the medium was replaced during the intoxication period with new medium containing glucose levels reduced to 250 μM, i.e. the physiological concentration in the human brain.
Concentrated lentiviral particles were titrated by transducing LUHMES cells with different dilutions at 6 hours after initiating differentiation. The lowest dilution at which at least 90% of cells expressed the transgene (as determined by immunohistochemistry of the cells fixed on day 2 post differentiation) was chosen for subsequent experiments. For these, concentrated lentiviral particles were again added into the medium on day 0, 6 hours after initiating differentiation.
Protein was extracted by scraping the cells from the culture plate with Mammalian Protein Extraction Reagent (M-PER, Thermo Fisher Scientific) and 1× cOmplete Protease Inhibitor Cocktail Tablets (Hoffmann-La Roche, Basel, Switzerland) and 1× PhosSTOP Phosphatase Inhibitor Cocktail Tablets (Hoffmann-La Roche). For pNRF2 blots, cells were extracted with 2% SDS tris-buffer instead of M-PER in order to obtain whole cell extracts and not to lose the nuclear fraction. […] Protein concentrations were determined using the BCA kit (Thermo Fisher Scientific) by heating the samples at 60° C. for 30 min and measuring the absorption on the NanoDrop 2000c Spectrophotometer (Thermo Fisher Scientific). […]

PERK = target: T1, PERK (Homo sapiens, UniProt Q9NZJ5); conditions: Stockwell et al. 2012; cited from earlier work
T1 sequence (Q9NZJ5 30-1116): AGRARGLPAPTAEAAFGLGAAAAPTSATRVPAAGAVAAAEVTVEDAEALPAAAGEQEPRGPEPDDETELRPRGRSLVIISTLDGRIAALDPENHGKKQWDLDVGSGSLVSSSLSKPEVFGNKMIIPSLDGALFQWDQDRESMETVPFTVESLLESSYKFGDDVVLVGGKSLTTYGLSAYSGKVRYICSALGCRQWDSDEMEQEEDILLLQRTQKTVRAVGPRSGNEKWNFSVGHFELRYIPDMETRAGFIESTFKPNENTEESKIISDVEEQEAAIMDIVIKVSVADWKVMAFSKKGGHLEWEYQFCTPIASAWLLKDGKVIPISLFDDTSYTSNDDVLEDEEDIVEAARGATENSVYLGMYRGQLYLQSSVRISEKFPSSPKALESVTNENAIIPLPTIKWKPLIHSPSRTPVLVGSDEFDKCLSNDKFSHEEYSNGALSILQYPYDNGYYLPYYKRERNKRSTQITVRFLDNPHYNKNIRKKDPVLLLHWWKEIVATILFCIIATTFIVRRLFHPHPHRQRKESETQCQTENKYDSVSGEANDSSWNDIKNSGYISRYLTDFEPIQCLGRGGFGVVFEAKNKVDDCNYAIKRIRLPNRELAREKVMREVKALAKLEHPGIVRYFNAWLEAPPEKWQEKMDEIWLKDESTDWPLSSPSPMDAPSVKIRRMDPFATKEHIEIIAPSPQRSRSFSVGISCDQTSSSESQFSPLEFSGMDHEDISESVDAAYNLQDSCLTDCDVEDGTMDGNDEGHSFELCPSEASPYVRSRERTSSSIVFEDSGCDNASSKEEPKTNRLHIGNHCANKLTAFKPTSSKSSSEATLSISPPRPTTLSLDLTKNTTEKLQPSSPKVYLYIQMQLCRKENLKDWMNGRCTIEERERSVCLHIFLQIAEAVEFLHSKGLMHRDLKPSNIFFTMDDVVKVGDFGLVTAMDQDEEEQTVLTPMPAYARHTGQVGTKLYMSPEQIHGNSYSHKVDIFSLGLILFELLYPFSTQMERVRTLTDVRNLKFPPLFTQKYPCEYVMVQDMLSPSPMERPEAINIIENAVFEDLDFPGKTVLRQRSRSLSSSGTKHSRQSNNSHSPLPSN

CCN(CC)CCC(=O)N1N=C(c2c(-c3ccccc3)c3cc(Br)ccc3[nH]c2=O)CC1c1ccc(Br)cc1 (centres unmarked) [CCT020312, 6-bromo-3-[5-(4-bromo-phenyl)-1-(3-diethylamino-propionyl)-4,5-dihydro-1H-pyrazol-3-yl]-4-phenyl-1H-quinolin-2-one]
AD2-positive tau (tau): not altered | CP13 (Ser-202) phosphorylated tau (tau): significantly reduced | HT7-positive tau (tau): not altered | EIF2A phosphorylation (PERK): increase | other arms of the UPR (PERK): remained unaffected
